In ChEMBL document CHEMBL1138400, “Discovery of gamma-secretase inhibitors efficacious in a transgenic animal model of Alzheimer's disease” (Bioorg Med Chem Lett, 2007):
pIC50: −log10 of the molar value.

Columns and labels:
Gamma-secretase [1] = assay: Inhibition of gamma-secretase mediated amyloid beta-40 production in HEK293 cell membranes; type: cell-based, Homo sapiens
in vivo = conditions: rat, plasma, po, 10 mg/kg
Description: AUC (0 to 6h) in rat at 10 mg/kg, po

Gamma-secretase [2] = assay: Inhibition of gamma-secretase mediated amyloid beta-40 production in HEK293 cells by whole cell-based assay; set-up: species or system Homo sapiens

Compound | pIC50 (Gamma-secretase [1]) | AUC(0-t) at 6 h (in vivo) [ng·h/mL] | pIC50 (Gamma-secretase [2])
C[C@H]1CN(CC2CC2)CCN1C(=O)OCC1CCCC(c2cc(F)cc(F)c2)N1S(=O)(=O)c1ccc(Cl)cc1 (mixture of isomers) | 6.96 | – | –
C[C@H]1CN(CCO)CCN1C(=O)OC1(C2CCCC(c3cccc(F)c3)N2S(=O)(=O)c2ccc(Cl)cc2)CC1 (mixture of isomers) | 8.68 | 7210 | 7.54
C[C@H]1CN(CC2CC2)CCN1C(=O)OC1(C2CCCC(c3cc(F)cc(F)c3)N2S(=O)(=O)c2ccc(Cl)cc2)CC1 (mixture of isomers) | 8.21 | – | –
CC(C)(OC(=O)N1CCC(N2CCCCC2)CC1)C1CCCC(c2cccc(F)c2)N1S(=O)(=O)c1ccc(Cl)cc1 (racemic) | 8.36 | 2430 | –
CN1CN(C)C2(CCN(C(=O)OCC3CCCC(c4cc(F)cc(F)c4)N3S(=O)(=O)c3ccc(Cl)cc3)CC2)C1=O (racemic) | 7.57 | – | –
O=C(OCC1CCCC(c2cc(F)cc(F)c2)N1S(=O)(=O)c1ccc(Cl)cc1)N1CCNCC1 (racemic) | 7.13 | – | –
CN(c1ccccc1)C1CCN(C(=O)OC2(C3CCCC(c4cccc(F)c4)N3S(=O)(=O)c3ccc(Cl)cc3)CC2)CC1 (racemic) | 7.81 | – | –
CC1CN(C(=O)OC2(C3CCCC(c4cccc(F)c4)N3S(=O)(=O)c3ccc(Cl)cc3)CC2)CC(C)N1 (racemic) | 8.28 | 1810 | 6.92
O=C(OC1(C2CCCC(c3cccc(F)c3)N2S(=O)(=O)c2ccc(Cl)cc2)CC1)N1CCN(CCO)CC1 (racemic) | 8.72 | 2090 | 8.15
O=C(OC1(C2CCCC(c3cccc(F)c3)N2S(=O)(=O)c2ccc(Cl)cc2)CC1)N1C2CCC1CC(N1CCCCC1)C2 (racemic) | 8.59 | 2880 | 8.01
CCC(CO)NC1CC2CCC(C1)N2C(=O)OC1(C2CCCC(c3cccc(F)c3)N2S(=O)(=O)c2ccc(Cl)cc2)CC1 (racemic) | 8.28 | 3070 | 7.67
O=C(OC1(C2CCCC(c3cc(F)cc(F)c3)N2S(=O)(=O)c2cc(F)cc(F)c2)CC1)N1CCC(N2CCCCC2)CC1 (racemic) | 8.46 | 5050 | 7.89
O=C(OC1(C2CCCC(c3cccc(F)c3)N2S(=O)(=O)c2ccc(Cl)cc2)CC1)N1CCC(O)(C2CC2)CC1 (racemic) | 8.43 | – | 8.11
Cl.O=C(OC1(C2CCCC(c3cc(F)cc(F)c3)N2S(=O)(=O)c2ccc(Cl)cc2)CC1)N1CCNCC1 (racemic; form 2) | 8.10 | 6210 | 6.97
Cl.O=C(OC1(C2CCCC(c3cccc(F)c3)N2S(=O)(=O)c2ccc(Cl)cc2)CC1)N1CCC(N2CCCCC2)CC1 (racemic; form 2) | 9.10 | 802 | 8.30

Other lines, results leading:

pIC50 (Gamma-secretase [1]) | AUC(0-t) at 6 h (in vivo) [ng·h/mL] | pIC50 (Gamma-secretase [2]) | Compound
8.44 | 2090 | 7.70 | O=C(OC1(C2CCCC(c3cccc(F)c3)N2S(=O)(=O)c2ccc(Cl)cc2)CC1)N1C2CCC1CC(N1CC[C@@H](O)C1)C2 (mixture of isomers)
9.05 | 1770 | 8.29 | C[C@H]1CN(C(C)(CO)CO)CCN1C(=O)OC1(C2CCCC(c3cccc(F)c3)N2S(=O)(=O)c2ccc(Cl)cc2)CC1 (mixture of isomers)
7.77 | – | 6.81 | C[C@H]1CNCCN1C(=O)OC1(C2CCCC(c3cc(F)cc(F)c3)N2S(=O)(=O)c2ccc(Cl)cc2)CC1 (mixture of isomers)
8.96 | 1400 | 8.12 | CCN1CCN(C(=O)OC2(C3CCCC(c4cc(F)cc(F)c4)N3S(=O)(=O)c3ccc(Cl)cc3)CC2)CC1 (racemic)
7.77 | 23100 | 7.61 | O=C(OC1(C2CCCC(c3cc(F)cc(F)c3)N2S(=O)(=O)c2cc(F)cc(F)c2)CC1)N1CCN(CCO)CC1 (racemic)
7.95 | 1380 | – | O=C(OCC1CCCC(c2cccc(F)c2)N1S(=O)(=O)c1ccc(Cl)cc1)N1CCC(N2CCCCC2)CC1 (racemic)
8.07 | – | – | O=C(OC1([C@H]2CCC[C@@H](c3cc(F)cc(F)c3)N2S(=O)(=O)c2ccc(Cl)cc2)CC1)N1CCC2(CC1)C(=O)NCN2c1ccccc1 (racemic)
7.44 | – | – | O=C(OCC1CCCC(c2cc(F)cc(F)c2)N1S(=O)(=O)c1ccc(Cl)cc1)N1CCN(C2CCCCC2)CC1 (racemic)
8.64 | 1670 | 8.26 | O=C(OC1(C2CCCC(c3cccc(F)c3)N2S(=O)(=O)c2ccc(Cl)cc2)CC1)N1CCC(N2CCC(F)(F)CC2)CC1 (racemic)
8.35 | – | 7.97 | CCCC1(O)CCN(C(=O)OC2(C3CCCC(c4cccc(F)c4)N3S(=O)(=O)c3ccc(Cl)cc3)CC2)CC1 (racemic)
9.52 | 1080 | 8.24 | O=C(OC1(C2CCCC(c3cc(F)cc(F)c3)N2S(=O)(=O)c2ccc(Cl)cc2)CC1)N1CCC(N2CCCCC2)CC1 (racemic)
8.57 | 783 | 7.77 | CC(C)N1CCN(C(=O)OC2(C3CCCC(c4cc(F)cc(F)c4)N3S(=O)(=O)c3ccc(Cl)cc3)CC2)CC1 (racemic)
6.78 | – | – | CN(c1ccccc1)C1CCN(C(=O)OCC2CCCC(c3cc(F)cc(F)c3)N2S(=O)(=O)c2ccc(Cl)cc2)CC1 (racemic)
6.82 | – | – | O=C(OC[C@H]1CCC[C@@H](c2cc(F)cc(F)c2)N1S(=O)(=O)c1ccc(Cl)cc1)N1CCC2(CC1)C(=O)NCN2c1ccccc1 (racemic)
8.28 | – | – | CN1CN(C)C2(CCN(C(=O)OC3(C4CCCC(c5cc(F)cc(F)c5)N4S(=O)(=O)c4ccc(Cl)cc4)CC3)CC2)C1=O (racemic)
8.38 | – | – | O=C(OC1(C2CCCC(c3cc(F)cc(F)c3)N2S(=O)(=O)c2ccc(Cl)cc2)CC1)N1CCN(C2CCCCC2)CC1 (racemic)
8.10 | – | – | O=C(OC1(C2CCCC(c3cc(F)cc(F)c3)N2S(=O)(=O)c2ccc(Cl)cc2)CC1)N1CCNCC1 (racemic; form 1)
9.15 | – | – | O=C(OC1(C2CCCC(c3cccc(F)c3)N2S(=O)(=O)c2ccc(Cl)cc2)CC1)N1CCC(N2CCCCC2)CC1 (racemic; form 1)
